In the Kinase Knowledgebase extract (Sharma et al. 2016):

target: PIK3CA (human) (UniProt P42336); experiment: Enzyme Assay
Sequence (P42336 whole entry, looked up): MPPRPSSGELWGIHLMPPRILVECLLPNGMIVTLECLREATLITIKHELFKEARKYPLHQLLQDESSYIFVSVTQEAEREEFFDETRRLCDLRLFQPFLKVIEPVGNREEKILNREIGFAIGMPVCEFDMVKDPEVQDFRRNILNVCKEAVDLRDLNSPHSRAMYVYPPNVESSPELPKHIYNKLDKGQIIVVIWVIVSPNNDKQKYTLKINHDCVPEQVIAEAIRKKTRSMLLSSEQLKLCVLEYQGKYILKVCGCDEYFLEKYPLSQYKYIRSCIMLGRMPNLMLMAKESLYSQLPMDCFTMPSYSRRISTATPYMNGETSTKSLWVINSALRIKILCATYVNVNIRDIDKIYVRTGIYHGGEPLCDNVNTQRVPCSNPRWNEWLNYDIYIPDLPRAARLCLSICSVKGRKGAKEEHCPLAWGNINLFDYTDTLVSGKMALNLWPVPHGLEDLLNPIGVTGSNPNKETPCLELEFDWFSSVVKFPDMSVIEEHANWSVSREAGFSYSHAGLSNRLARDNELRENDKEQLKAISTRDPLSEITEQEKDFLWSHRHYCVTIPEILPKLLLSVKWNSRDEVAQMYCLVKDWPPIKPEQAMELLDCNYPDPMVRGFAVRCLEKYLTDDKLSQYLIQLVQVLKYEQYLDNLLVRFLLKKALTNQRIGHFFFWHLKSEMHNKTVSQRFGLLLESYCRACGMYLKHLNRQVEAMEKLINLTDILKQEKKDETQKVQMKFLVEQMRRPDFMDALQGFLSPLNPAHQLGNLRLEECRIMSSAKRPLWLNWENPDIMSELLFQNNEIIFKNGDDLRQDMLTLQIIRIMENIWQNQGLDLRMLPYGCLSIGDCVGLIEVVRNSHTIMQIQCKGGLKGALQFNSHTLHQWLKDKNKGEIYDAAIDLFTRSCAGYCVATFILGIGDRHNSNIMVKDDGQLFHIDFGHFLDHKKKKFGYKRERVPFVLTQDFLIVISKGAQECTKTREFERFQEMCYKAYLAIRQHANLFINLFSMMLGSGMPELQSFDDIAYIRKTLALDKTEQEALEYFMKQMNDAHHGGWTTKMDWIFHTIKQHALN

SMILES	IC50
COC(=O)Nc1ccc(-c2ccc3ncc4c(c3c2)n(-c2cccc(F)c2C)c(=O)n4C)cn1	40 nM
CNC(=O)Nc1ccc(-c2ccc3ncc4c(c3c2)n(-c2cccc(F)c2C)c(=O)n4C)cn1	7 nM
CNC(=O)Nc1ccc(-c2ccc3ncc4c(c3c2)n(-c2ccc(Cl)cc2C)c(=O)n4C)cn1	9 nM
COC(=O)Nc1ccc(-c2ccc3ncc4c(c3c2)n(-c2cccc(C(F)(F)F)c2)c(=O)n4C)cn1	6 nM
COCC(=O)Nc1ccc(-c2ccc3ncc4c(c3c2)n(-c2ccc(C(C)(C)C#N)cc2)c(=O)n4C)cn1	15 nM
COC(=O)Nc1ccc(-c2ccc3ncc4c(c3c2)n(-c2cccc(C(F)(F)F)c2C)c(=O)n4C)cn1	15 nM
CNC(=O)Nc1ccc(-c2ccc3ncc4c(c3c2)n(-c2ccccc2C(F)(F)F)c(=O)n4C)cn1	4 nM
COC(=O)Nc1ccc(-c2ccc3ncc4c(c3c2)n(-c2cccnc2OC)c(=O)n4C)cn1	57 nM
CNC(=O)Nc1ccc(-c2ccc3ncc4c(c3c2)n(-c2cccc(F)c2)c(=O)n4C)cn1	21 nM
COCCOc1cncc(-c2ccc3ncc4c(c3c2)n(-c2ccc(C(C)(C)C#N)cc2)c(=O)n4C)c1	76 nM
Cn1c(=O)n(-c2cccc(C(F)(F)F)c2)c2c3cc(-c4cncc(OCCF)c4)ccc3ncc21	115 nM
COCC(=O)Nc1cncc(-c2ccc3ncc4c(c3c2)n(-c2ccc(C(C)(C)C#N)cc2)c(=O)n4C)c1	63 nM
Cn1c(=O)n(-c2ccc(C(C)(C)C#N)cc2)c2c3cc(-c4cncc(OCC#N)c4)ccc3ncc21	22 nM
COC(=O)Nc1ccc(-c2ccc3ncc4c(c3c2)n(-c2cccc(Cl)c2F)c(=O)n4C)cn1	4 nM
CNC(=O)Nc1ccc(-c2ccc3ncc4c(c3c2)n(-c2cccc(C(F)(F)F)c2)c(=O)n4C)cn1	2 nM
C=CC(=O)Nc1ccc(-c2ccc3ncc4c(c3c2)n(-c2cccc(C(F)(F)F)c2)c(=O)n4C)cn1	45 nM
COC(=O)Nc1ccc(-c2ccc3ncc4c(c3c2)n(-c2cccc(Cl)c2C)c(=O)n4C)cn1	27 nM
CNC(=O)Nc1ccc(-c2ccc3ncc4c(c3c2)n(-c2cccc(Cl)c2F)c(=O)n4C)cn1	3 nM
CNC(=O)Nc1ccc(-c2ccc3ncc4c(c3c2)n(-c2ccc(Cl)cc2Cl)c(=O)n4C)cn1	87 nM
C#Cc1ccc(-c2ccc3ncc4c(c3c2)n(-c2ccc(C(C)(C)C#N)cc2)c(=O)n4C)cn1	6 nM
COC(=O)Nc1ccc(-c2ccc3ncc4c(c3c2)n(-c2ccccc2C(F)(F)F)c(=O)n4C)cn1	12 nM
Cn1c(=O)n(-c2ccc(C(C)(C)C#N)cc2)c2c3cc(-c4cncc(OCC(F)(F)F)c4)ccc3ncc21	19 nM
CNC(=O)Nc1ccc(-c2ccc3ncc4c(c3c2)n(-c2cccc(F)c2Cl)c(=O)n4C)cn1	5 nM
Cn1c(=O)n(-c2ccc(C(C)(C)C#N)cc2)c2c3cc(-c4ccc(NC(=O)C5CC5)nc4)ccc3ncc21	6 nM

SMILES	IC50
Cc1ncc(-c2ccc3ncc4c(c3c2)n(-c2cccc(C(F)(F)F)c2)c(=O)n4C)cc1OCCF	14 nM
CNC(=O)Nc1ccc(-c2ccc3ncc4c(c3c2)n(-c2c(C)cccc2C)c(=O)n4C)cn1	107 nM
COCC(=O)Nc1ccc(-c2ccc3ncc4c(c3c2)n(-c2cccc(C(F)(F)F)c2)c(=O)n4C)cn1	32 nM
CNC(=O)Nc1ccc(-c2ccc3ncc4c(c3c2)n(-c2ccc(N3CCN(C)CC3)c(C(F)(F)F)c2)c(=O)n4C)cn1	3 nM
CCOC(=O)Nc1ccc(-c2ccc3ncc4c(c3c2)n(-c2cccc(C(F)(F)F)c2)c(=O)n4C)cn1	103 nM
COC(=O)Nc1ccc(-c2ccc3ncc4c(c3c2)n(-c2ccc(C(F)(F)F)nc2C)c(=O)n4C)cn1	2.4 nM
C#Cc1cncc(-c2ccc3ncc4c(c3c2)n(-c2ccc(C(C)(C)C#N)cc2)c(=O)n4C)c1	12 nM
CNC(=O)Nc1ccc(-c2ccc3ncc4c(c3c2)n(-c2ccc(F)cc2)c(=O)n4C)cn1	8 nM
CNC(=O)Nc1ccc(-c2ccc3ncc4c(c3c2)n(-c2cccc(Cl)c2C)c(=O)n4C)cn1	6 nM
COC(=O)Nc1ccc(-c2ccc3ncc4c(c3c2)n(-c2ccccc2C)c(=O)n4C)cn1	48 nM
CNC(=O)Nc1ccc(-c2ccc3ncc4c(c3c2)n(-c2cccnc2OC)c(=O)n4C)cn1	19 nM
CNC(=O)Nc1ccc(-c2ccc3ncc4c(c3c2)n(-c2cccc(C(F)(F)F)c2C)c(=O)n4C)cn1	1 nM
COC(=O)Nc1cncc(-c2ccc3ncc4c(c3c2)n(-c2ccc(C(C)(C)C#N)cc2)c(=O)n4C)c1	9 nM
CNC(=O)Nc1ccc(-c2ccc3ncc4c(c3c2)n(-c2ccc(F)c(C(F)(F)F)c2)c(=O)n4C)cn1	5 nM
COC(=O)Nc1ccc(-c2ccc3ncc4c(c3c2)n(-c2ccc(F)c(C(F)(F)F)c2)c(=O)n4C)cn1	25 nM
Cn1c(=O)n(-c2ccc(F)c(Cl)c2)c2c3cc(-c4cncc(OCCF)c4)ccc3ncc21	47 nM
C=CC(=O)Nc1ccc(-c2ccc3ncc4c(c3c2)n(-c2cccc(F)c2C)c(=O)n4C)cn1	52 nM
Cn1c(=O)n(-c2ccc(C(C)(C)C#N)cc2)c2c3cc(-c4ccc(NC(=O)NC5CCOC5)nc4)ccc3ncc21 (stereo unspecified)	44 nM
CNC(=O)Nc1ccc(-c2ccc3ncc4c(c3c2)n(-c2ccc(F)cc2C)c(=O)n4C)cn1	12 nM
COC(=O)Nc1ccc(-c2ccc3ncc4c(c3c2)n(-c2cccc(C)c2C)c(=O)n4C)cn1	31 nM
COC(=O)Nc1ccc(-c2ccc3ncc4c(c3c2)n(-c2cccc(F)c2Cl)c(=O)n4C)cn1	16 nM
COC(=O)Nc1ccc(-c2ccc3ncc4c(c3c2)n(-c2ccc(Cl)cc2Cl)c(=O)n4C)cn1	85 nM
Cc1ncc(-c2ccc3ncc4c(c3c2)n(-c2ccc(C(C)(C)C#N)cc2)c(=O)n4C)cc1OC(F)F	133 nM
COCCOc1cc(-c2ccc3ncc4c(c3c2)n(-c2ccc(C(C)(C)C#N)cc2)c(=O)n4C)cnc1C	18 nM

SMILES	IC50
Cc1ncc(-c2ccc3ncc4c(c3c2)n(-c2ccc(C(C)(C)C#N)cc2)c(=O)n4C)cc1OCCF	5 nM
COCCOc1cncc(-c2ccc3ncc4c(c3c2)n(-c2ccc(F)c(C(F)(F)F)c2)c(=O)n4C)c1	107 nM
COCC(=O)Nc1ccc(-c2ccc3ncc4c(c3c2)n(-c2ccc(F)c(C(F)(F)F)c2)c(=O)n4C)cn1	90 nM
C/C=C/C(=O)Nc1ccc(-c2ccc3ncc4c(c3c2)n(-c2ccc(C(C)(C)C#N)cc2)c(=O)n4C)cn1	14 nM
CNC(=O)Nc1ccc(-c2ccc3ncc4c(c3c2)n(-c2ccccc2C)c(=O)n4C)cn1	12 nM
Cc1ncc(-c2ccc3ncc4c(c3c2)n(-c2cccc(F)c2C)c(=O)n4C)cc1OCCF	21 nM
COC(=O)Nc1cncc(-c2ccc3ncc4c(c3c2)n(-c2cccc(Cl)c2C)c(=O)n4C)c1	80 nM
COCCOc1cc(-c2ccc3ncc4c(c3c2)n(-c2cccc(C(F)(F)F)c2)c(=O)n4C)cnc1C	40 nM
COC(=O)Nc1ccc(-c2ccc3ncc4c(c3c2)n(-c2ccc(F)c(Cl)c2)c(=O)n4C)cn1	94 nM
Cn1c(=O)n(-c2ccc(C(C)(C)C#N)cc2)c2c3cc(-c4cncc(OC(F)F)c4)ccc3ncc21	10 nM
Cn1c(=O)n(-c2cccc(C(F)(F)F)c2)c2c3cc(-c4ccc(NC(=O)CC#N)nc4)ccc3ncc21	18 nM
C=CC(=O)Nc1ccc(-c2ccc3ncc4c(c3c2)n(-c2ccc(C(C)(C)C#N)cc2)c(=O)n4C)cn1	5 nM
CNC(=O)Nc1ccc(-c2ccc3ncc4c(c3c2)n(-c2cccc(C)c2C)c(=O)n4C)cn1	3 nM
C#Cc1cncc(-c2ccc3ncc4c(c3c2)n(-c2cccc(C(F)(F)F)c2)c(=O)n4C)c1	22 nM
Cn1c(=O)n(-c2ccc(C(C)(C)C#N)cc2)c2c3cc(-c4ccc(NC=O)nc4)ccc3ncc21	19 nM
COC(=O)Nc1cncc(-c2ccc3ncc4c(c3c2)n(-c2cccc(C(F)(F)F)c2)c(=O)n4C)c1	146 nM
Cn1c(=O)n(-c2ccc(C(C)(C)C#N)cc2)c2c3cc(-c4ccc(NC(=O)C(F)(F)F)nc4)ccc3ncc21	33 nM
Cn1c(=O)n(-c2ccc(C(C)(C)C#N)cc2)c2c3cc(-c4ccc(NC(=O)CC#N)nc4)ccc3ncc21	24 nM
Cn1c(=O)n(-c2ccc(C(C)(C)C#N)cc2)c2c3cc(-c4cncc(OCCF)c4)ccc3ncc21	23 nM
CNC(=O)Nc1ccc(-c2ccc3ncc4c(c3c2)n(-c2ccc(C(C)(C)C#N)cc2)c(=O)n4C)cn1	21 nM
COCc1ccc(-c2ccc3ncc4c(c3c2)n(-c2ccc(C(C)(C)C#N)cc2)c(=O)n4C)cn1	44 nM
Cc1c(F)cccc1-n1c(=O)n(C)c2cnc3ccc(-c4cncc(OCC#N)c4)cc3c21	66 nM
Cn1c(=O)n(-c2ccc(C(C)(C)C#N)cc2)c2c3cc(-c4ccc(NC(=O)NCCO)nc4)ccc3ncc21	22 nM
